Results: PubChem BioAssay (NCI)
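Five concentrations, 48 hours, 96-well plates. The concentration for full growth arrest is given as TGI.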

What was measured:
Test in all cases: NCI tumour cell line growth inhibition, 48 h
[1] = system: HCT-15 colon
[2] = system: UACC-62 melanoma
[3] = system: BT-549 breast
[4] = system: SK-OV-3 ovarian
[5] = system: ACHN renal
[6] = system: NCI-H460 lung
[7] = system: DU-145 prostate
[8] = system: OVCAR-5 ovarian
[9] = system: T-47D breast
[10] = system: A549 NSCLC
[11] = system: NCI-H522 lung
[12] = system: NCI/ADR-RES ovarian
[13] = system: SK-MEL-28 melanoma
[14] = system: SNB-19 CNS
[15] = system: TK-10 renal
[16] = system: KM12 colon
[17] = system: SF-295 CNS
[18] = system: SNB-75 CNS
[19] = system: EKVX NSCLC
[20] = system: MCF7 breast
[21] = system: SW-620 colon
[22] = system: HCC-2998 colon
[23] = system: LOX IMVI melanoma
[24] = system: NCI-H23 lung
[25] = system: RPMI-8226 leukemia
[26] = system: OVCAR-8 ovarian
[27] = system: MALME-3M melanoma
[28] = system: CAKI-1 renal
[29] = system: U251 CNS
[30] = system: HCT-116 colon
[31] = system: MDA-MB-231 breast
[32] = system: M14 melanoma
[33] = system: NCI-H226 lung
[34] = system: HT29 colon
[35] = system: SN12C renal
[36] = system: COLO 205 colon
[37] = system: RXF 393 renal
[38] = system: 786-0 renal
[39] = system: MOLT-4 leukemia
[40] = system: MDA-MB-435
[41] = system: MDA-N
[42] = system: SF-268 CNS
[43] = system: HOP-92 NSCLC
[44] = system: SK-MEL-2 melanoma
[45] = system: UACC-257 melanoma
[46] = system: HOP-62 NSCLC
[47] = system: SK-MEL-5 melanoma
[48] = system: UO-31 renal
[49] = system: OVCAR-3 ovarian
[50] = system: HS 578T breast
[51] = system: PC-3 prostate
[52] = system: IGROV1 ovarian
[53] = system: SR leukemia
[54] = system: OVCAR-4 ovarian
[55] = system: A498 renal
[56] = system: K-562 leukemia
[57] = system: HL-60(TB) leukemia
[58] = system: SF-539 CNS
[59] = system: CCRF-CEM leukemia

COc1ccc2c(c1O)C13CCN(C)C(C2)C1CCC1(C3)OCCO1 (centres undefined)
TGI [1]: > 100 µM
TGI [2]: > 100 µM
TGI [3]: > 100 µM
TGI [4]: > 100 µM
TGI [5]: > 100 µM
TGI [6]: > 100 µM
TGI [7]: > 100 µM
TGI [8]: > 100 µM
TGI [9]: > 100 µM
TGI [10]: > 100 µM
TGI [11]: > 100 µM
TGI [12]: > 100 µM
TGI [13]: > 100 µM
TGI [14]: > 100 µM
TGI [15]: > 100 µM
TGI [16]: > 100 µM
TGI [17]: > 100 µM
TGI [18]: > 100 µM
TGI [19]: > 100 µM
TGI [20]: > 100 µM
TGI [21]: > 100 µM
TGI [22]: > 100 µM
TGI [23]: > 100 µM
TGI [24]: > 100 µM
TGI [25]: > 100 µM
TGI [26]: > 100 µM
TGI [27]: > 100 µM
TGI [28]: > 100 µM
TGI [29]: > 100 µM
TGI [30]: > 100 µM
TGI [31]: > 100 µM
TGI [32]: > 100 µM
TGI [33]: > 100 µM
TGI [34]: > 100 µM
TGI [35]: > 100 µM
TGI [36]: > 100 µM
TGI [37]: > 100 µM
TGI [38]: > 100 µM
TGI [39]: > 100 µM
TGI [40]: > 100 µM
TGI [41]: > 100 µM
TGI [42]: > 100 µM
TGI [43]: > 100 µM
TGI [44]: > 100 µM
TGI [45]: > 100 µM
TGI [46]: > 100 µM
TGI [47]: > 100 µM
TGI [48]: > 100 µM
TGI [49]: > 100 µM
TGI [50]: > 100 µM
TGI [51]: > 100 µM
TGI [52]: > 100 µM
TGI [53]: > 100 µM
TGI [54]: > 100 µM

N/C(=N\S(=O)(=O)c1cccc2nsnc12)Nc1ccc(Cl)cc1
TGI [1]: > 100 µM
TGI [2]: 35.2 µM
TGI [3]: > 100 µM
TGI [4]: > 100 µM
TGI [5]: > 100 µM
TGI [6]: 67 µM
TGI [7]: > 100 µM
TGI [8]: > 100 µM
TGI [9]: > 100 µM
TGI [10]: > 100 µM
TGI [11]: 25.7 µM
TGI [12]: > 100 µM
TGI [13]: 71.8 µM
TGI [14]: > 100 µM
TGI [15]: 62.8 µM
TGI [16]: > 100 µM
TGI [17]: > 100 µM
TGI [18]: > 100 µM
TGI [19]: 63.7 µM
TGI [20]: > 100 µM
TGI [21]: > 100 µM
TGI [23]: 85.8 µM
TGI [24]: > 100 µM
TGI [25]: > 100 µM
TGI [26]: > 100 µM
TGI [27]: 40.2 µM
TGI [29]: 77.1 µM
TGI [30]: > 100 µM
TGI [31]: 75.9 µM
TGI [32]: > 100 µM
TGI [33]: > 100 µM
TGI [34]: > 100 µM
TGI [35]: > 100 µM
TGI [55]: 59.5 µM
TGI [56]: > 100 µM
TGI [57]: 78 µM
TGI [37]: > 100 µM
TGI [38]: > 100 µM
TGI [39]: > 100 µM
TGI [58]: > 100 µM
TGI [41]: > 100 µM
TGI [42]: > 100 µM
TGI [43]: 56.5 µM
TGI [44]: 26.3 µM
TGI [45]: 32.5 µM
TGI [46]: > 100 µM
TGI [47]: 31.2 µM
TGI [48]: > 100 µM
TGI [49]: > 100 µM
TGI [50]: 68.9 µM
TGI [51]: 55 µM
TGI [52]: > 100 µM
TGI [53]: > 100 µM
TGI [54]: > 100 µM

O=C(N/N=C(/COc1ccc(Cl)cc1)N=Cc1cccnc1)c1ccncc1
TGI [1]: > 100 µM
TGI [2]: > 100 µM
TGI [3]: > 100 µM
TGI [4]: > 100 µM
TGI [5]: > 100 µM
TGI [6]: > 100 µM
TGI [7]: > 100 µM
TGI [8]: > 100 µM
TGI [9]: > 100 µM
TGI [10]: > 100 µM
TGI [11]: 66.7 µM
TGI [12]: > 100 µM
TGI [13]: > 100 µM
TGI [14]: > 100 µM
TGI [15]: > 100 µM
TGI [16]: > 100 µM
TGI [17]: > 100 µM
TGI [18]: > 100 µM
TGI [19]: > 100 µM
TGI [20]: > 100 µM
TGI [21]: > 100 µM
TGI [22]: > 100 µM
TGI [23]: > 100 µM
TGI [24]: > 100 µM
TGI [25]: > 100 µM
TGI [26]: > 100 µM
TGI [27]: > 100 µM
TGI [28]: > 100 µM
TGI [59]: > 100 µM
TGI [29]: > 100 µM
TGI [30]: > 100 µM
TGI [31]: > 100 µM
TGI [32]: > 100 µM
TGI [33]: > 100 µM
TGI [34]: > 100 µM
TGI [35]: > 100 µM
TGI [55]: > 100 µM
TGI [56]: > 100 µM
TGI [57]: > 100 µM
TGI [36]: > 100 µM
TGI [37]: > 100 µM
TGI [38]: > 100 µM
TGI [39]: > 100 µM
TGI [58]: > 100 µM
TGI [40]: > 100 µM
TGI [41]: 65.8 µM
TGI [42]: > 100 µM
TGI [43]: 84.5 µM
TGI [44]: > 100 µM
TGI [45]: > 100 µM
TGI [46]: > 100 µM
TGI [49]: > 100 µM
TGI [50]: 94.9 µM
TGI [51]: > 100 µM
TGI [52]: > 100 µM
TGI [54]: > 100 µM
